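Briefly, cells in 96-well plates were exposed to five compound concentrations for 48 h, and endpoints were estimated by linear interpolation. GI50 is the concentration that inhibits growth by half. TGI marks complete inhibition of growth.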
How the values were obtained:
Experiment in all cases: DTP human tumour cell line panel, 48 h
[1] = test system: EKVX NSCLC
[2] = test system: CCRF-CEM leukemia
[3] = test system: RXF 393 renal
[4] = test system: U251 CNS
[5] = test system: HCT-116 colon
[6] = test system: SW-620 colon
[7] = test system: IGROV1 ovarian
[8] = test system: MOLT-4 leukemia
[9] = test system: PC-3 prostate
[10] = test system: MCF7 breast

Structure (SMILES)	TGI [1] [µM]	TGI [2] [µM]	TGI [3] [µM]	TGI [4] [µM]	TGI [5] [µM]	TGI [6] [µM]	TGI [7] [µM]	TGI [8] [µM]	GI50 [1] [µM]	GI50 [4] [µM]	GI50 [5] [µM]	GI50 [6] [µM]	GI50 [7] [µM]	GI50 [9] [µM]	TGI [9] [µM]	GI50 [10] [µM]	TGI [10] [µM]	GI50 [2] [µM]	GI50 [3] [µM]	GI50 [8] [µM]
CCc1cccc(C)c1N1C(=O)C(=O)C(c2nc3ccccc3o2)/C(=N/NC(=S)NN)C1=O (stereo not given)	> 100	> 100	> 100	> 100	> 100	> 100	> 100													
O=CC1CCC=CC1NC(=O)OCc1ccccc1 (stereo not given)	> 100	> 100	> 100	> 100	> 100	> 100	> 100	> 100												
N#CC(C(=O)/C(=N/NC(=O)c1ccccc1O)C(C#N)c1ccc(Br)cc1)c1ccc(Br)cc1 (stereo not given)	30	76.4	16	23.7	26.6	18.1	33.3	44												
O=C1Nc2ccc(O)cc2/C1=C\c1ccncc1	56			23.1	39.9	58.3	41.6		10.6	10.3	14.7	25.5	4.27	26.9	77.8	4.18	38.2			
CCOC(=O)NC(=O)c1cn(CCCCCCCCCCC(=O)NCCCN2CCN(CCCNC(=O)CCCCCCCCCCn3cc(C(=O)NC(=O)OCC)c(=O)[nH]c3=O)CC2)c(=O)[nH]c1=O		> 100		> 100	> 100	> 100		> 100												
O=c1c2cccc(F)c2sc2c(NCCCNCCO)nc3ccccc3c12	2.64	3.87	2.73		2.78	2.62	2.65	2.43	1.29		1.39	1.22	1.23	1.66	3.31	1.14	2.53	1.41	1.37	0.698
O=C(Nc1ccccc1)n1cc(-c2ccccn2)c(N2CCOCC2)n1	> 100	> 100		> 100	> 100	> 100	> 100	> 100												
O=C(CCC(=O)Nc1ccc(Cl)cc1)CC(=O)c1ccc2ccccc2c1	> 100	> 100	> 100	> 100	> 100	> 100	> 100	> 100												
O=C[C@]12CC=C3OC4OC5(CCCCC5)OC4[C@H]3[C@H]1C(=O)C=CC2=O (stereo not given in full)	39.8	9.3	25.9	64.6	38.4	38.9		15.3												
C[C@]12CCCN1CC1=NNC(=O)c3cc(F)cc4[nH]c2c1c34	49.7	81		> 100	> 100	> 100	> 100	> 100	13.6	14.1	14.2	16.7	21.5	20.7	> 100	11.6	> 100	22.5		22.3

— PubChem BioAssay (NCI)
